{"source": "patent EP2550959A1", "about": "(priority 2011, dated 2013)", "key": {"[1]": {"target": "T1, 5-HT2B Rezeptoren von Schweinelungenarterien (Sus scrofa, UniProt F1SMV8)", "T1 sequence (F1SMV8 1-481)": "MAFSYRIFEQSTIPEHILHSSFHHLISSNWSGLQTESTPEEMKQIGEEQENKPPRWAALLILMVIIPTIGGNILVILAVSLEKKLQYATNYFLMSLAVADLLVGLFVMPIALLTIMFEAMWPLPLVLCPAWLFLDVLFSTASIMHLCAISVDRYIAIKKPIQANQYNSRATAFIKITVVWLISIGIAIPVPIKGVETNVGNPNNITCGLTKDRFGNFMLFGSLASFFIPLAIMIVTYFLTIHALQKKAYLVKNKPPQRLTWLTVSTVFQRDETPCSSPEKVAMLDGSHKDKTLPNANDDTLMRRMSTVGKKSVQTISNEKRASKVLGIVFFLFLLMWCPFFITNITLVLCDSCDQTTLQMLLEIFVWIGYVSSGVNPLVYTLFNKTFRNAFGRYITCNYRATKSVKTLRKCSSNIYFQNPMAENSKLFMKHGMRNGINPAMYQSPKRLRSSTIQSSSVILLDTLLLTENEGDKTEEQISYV", "test": "Functional 5-HT2B receptor assay: 5-HT-induced relaxation of PGF2α-precontracted pig pulmonary arteries", "assay_type": "biochemical, Schwein", "conditions": "conditions as in Beispiel 1", "excerpt": "(§1) Dabei bedeutet der pA2 -Wert den negativ dekadischen Logarithmus der Konzentration eines Antagonisten, die es erforderlich macht, die Agonisten-Konzentration zu verdoppeln, um den Ausgangseffekt des Agonisten ohne Antagonisten wiederherzustellen.\nDie vaskuläre Reaktion in Präparationen der Pulmonalarterien des Schweins, die mittels PGF2α vorkontrahiert waren, wurden als Assay für die spezifische Interaktion mit 5-HT2B-Rezeptoren verwendet (siehe Fig. 1A)."}, "[2]": {"target": "5-HT2A Rezeptoren von Schweineherzkranzarterien (Sus scrofa, UniProt P50129)", "sequence (P50129 whole entry)": "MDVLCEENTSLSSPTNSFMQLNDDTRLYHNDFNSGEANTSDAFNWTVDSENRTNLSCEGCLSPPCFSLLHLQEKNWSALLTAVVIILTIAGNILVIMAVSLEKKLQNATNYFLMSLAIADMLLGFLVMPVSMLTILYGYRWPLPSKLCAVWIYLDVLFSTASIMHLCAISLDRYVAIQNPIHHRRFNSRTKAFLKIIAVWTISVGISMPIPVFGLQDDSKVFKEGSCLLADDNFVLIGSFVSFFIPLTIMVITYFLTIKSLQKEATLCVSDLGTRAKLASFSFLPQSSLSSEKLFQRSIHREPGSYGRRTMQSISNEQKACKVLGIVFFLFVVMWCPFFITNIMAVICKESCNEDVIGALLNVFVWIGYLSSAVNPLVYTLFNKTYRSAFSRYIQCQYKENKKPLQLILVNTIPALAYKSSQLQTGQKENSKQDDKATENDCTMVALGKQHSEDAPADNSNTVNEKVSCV", "test": "Functional 5-HT2A receptor assay: 5-HT-induced contraction of pig coronary arteries", "assay_type": "biochemical, Schwein", "excerpt": "as §1"}, "[3]": {"test": "Antioxidative effect / uptake of oxygen radicals", "assay_type": "physicochemical", "conditions": "per single molecule", "source_text": "Die massenspektroskopisch in der Mehrheit nachweisbaren Reaktionsprodukte enthalten 2 Sauerstoffatome; es lassen sich aber auch Verbindungen mit 3, 4 und 5 Sauerstoff-Atomen nachweisen.\nEin typisches Charakteristikum von Massenspektra ist, dass Gipfel von [M+H]++18, d. h. Zusatz von Wasser, oder [M+H]++16, d.h. Zusatz eines Sauerstoffatoms, gefunden werden, wie auch Kombinationen von Wasser und Sauerstoffatomen. Wegen der niedrigen in den Entnahmeproben enthaltenen Substanzmengen und der Kurzlebigkeit der Reaktionsprodukte war deren Isolierung zur Strukturaufklärung nicht möglich. Das Lisuridmolekül weist mehrere Positionen auf, an denen Wasser und/oder ein Sauerstoffatom gebunden werden können (Fig. 4)."}, "[4]": {"test": "Stability of lisuride dissolved in water (HPLC)", "conditions": "room temperature, HPLC (Fig. 3A)"}, "[5]": {"target": "T1, 5-HT2B Rezeptoren von Schweinelungenarterien", "conditions": "footnote d: from Glusa and Pertz, Brit. J. Pharmacol. 130, 692-698, 2000; cited from earlier work"}, "[6]": {"tested_on": "monocrotalin-induzierten Lungenhochdruck", "test": "Monocrotaline-induced pulmonary hypertension in the rat", "assay_type": "in vivo, Sprague-Dawley Ratten", "conditions": "days 15-28, mean ± SEM (N=6)", "source_text": "Monocrotalin (MCT) ist ein Toxin aus Pflanzen der Spezies Crotalaria, welches nach einer einzigen Injektion in Ratten die Endothelzellen der pulmonalen Arterien schädigt mit folgender Hypertrophie der glatten Gefässmuskulatur und persistierendem schwerem pulmonalem Hochdruck. Die MCTinduzierte pulmonale Hypertension der Ratte ist ein gut etabliertes und validiertes Modell der humanen pulmonalen Hypertension und alle heute zugelassenen Therapeutika haben eine Wirkung in diesem Modell gezeigt, zumindest wenn sie vor dem toxisch bedingten Gewebeumbau angewendet wurden.\nMCT (60mg/kg) wurde bei männlichen Sprague-Dawley Ratten als Einzelinjektion subkutan verabreicht und ein gleiches Volumen isotonischer Kochsalzlösung bei den Kontrolltieren injiziert. […] Dabei wurde die genannte Dosis der jeweiligen Testsubstanz morgens und abends in einem Volumen von je 2.0 ml an Gruppen von jeweils 6 Tieren gegeben, die an Tag 1 des Experiments mit MCT behandelt worden waren. Die gleiche Menge Wasser wurde den Kontrolltieren zugeführt.\nAm Tag 28 des Experiments, zwei Stunden nach letztmaliger Substanzgabe, wurden die Tiere narkotisiert unter Verwendung von Pentobarbital. Eine Tracheotomie wurde durchgeführt und die Tiere unter Isofluran-Anästhesie beatmet. Der mittlere arterielle Systemdruck und der systolische Druck im rechten Herzventrikel wurden gemessen. Nach den Druckmessungen wurden die Tiere mit physiologischer Kochsalzlösung perfundiert und die rechte Lunge wurde zur Bestimmung des Kollagengehalts entfernt.\nDie sc-Injektion von MCT, wie oben beschrieben, führt zu einer schweren Schädigung des pulmonalen Gefässendothels sowie überschießender Produktion von Bindegewebe und Entwicklung einer pulmonalen Hypertonie. Anhäufung von Kollagen, gemessen als Hydroxyprolin-Gehalt des Lungengewebes, und Anstieg des rechtsventrikulären systolischen Drucks reflektieren die beschriebenen strukturellen und funktionalen Veränderungen. Die möglichen therapeutischen und präventiven Effekte von Lisurid bzw. Tergurid wurden in dem vorgestellten Modell der pulmonalen Hypertension gemessen. […]"}, "[7]": {"tested_on": "Menschliche glatte Muskelzellen mesenterialen Ursprungs", "test": "5-HT-stimulated proliferation of human smooth muscle cells (3H-thymidine uptake)", "assay_type": "cell-based", "conditions": "10 µmol/l test substance, growth stimulated with 10-8 mol/l 5-HT; Fig. 2", "excerpt": "Menschliche glatte Muskelzellen mesenterialen Ursprungs (Promo Cell) wurden entsprechend den Empfehlungen des Herstellers bis zur Bildung geschlossener Monolayers in 6 Platten mit PromoCell-Kulturmedium vermehrt und dann im gleichen Medium auf 24-Vertiefungsträgern für eine Zellzahl von 5x104 Zellen/Ansatz ausgesät. […] Zur Bestimmung des Zellwachstums wurde dann 3H-Thymidin (Amersham) zu den Zellkulturen hinzugegeben und diese für 24 Stunden inkubiert. Nach der Adhäsion der Zellen wurde das Kulturmedium durch ein Standardmedium mit 0.2% fetalem Kalbsserum zum Wachstumsstopp ersetzt und erneut 48 Stunden lang inkubiert.\nUm antiproliferative Wirkungen der beschriebenen Substanzen zu testen, wurden die Zellkulturen dann zunächst mit einer Konzentration von 10 µmol/l der Prüfsubstanzen präinkubiert. […] Zur Messung des Wachstums der Zellen wurde dann 3H-Thymidin (Amersham) den Kulturen zugefügt und diese für 24 Stunden inkubiert. Danach erfolgten 2 Inkubationen in eisgekühlter Kochsalzlösung mit einem Phosphat-Puffer und danach 30 min Inkubation in eisgekühlter 10%iger Trichlor-Essigsäure bei 4°C. Die Zellen wurden dann in 0.1 molarer NaOH-Lösung inkubiert (0.5 ml/Inkubationsgefäss). Nach Neutralisierung mit Essigsäure wurde die 3H -Thymidin-Aufnahme mit Flüssig-Szintillation gemessen (als Dreifach-Bestimmung)."}, "5-HT-induzierte Effekte": {"tested_on": "5-HT-induzierte Effekte", "conditions": "2007], cited from earlier work"}}, "note": "Like-named read-outs stand apart in the source and are kept apart here."}
{"compound": "CCN(CC)C(=O)NC1C=C2c3cccc4[nH]cc(c34)CC2NC1", "note": "(stereo not drawn) [6-Norlisurid]", "values": [{"measurement": "5-HT2B pA2", "setting": "[1]", "result": "8.39 ± 0.12"}, {"measurement": "Kb", "setting": "[2]", "result": 1.45, "unit": "nM"}]}
{"compound": "CCN(CC)C(=O)NC1CNC2Cc3c[nH]c4cccc(c34)C2C1", "note": "(stereo not drawn) [6-Nortergurid]", "values": [{"measurement": "5-HT2B pA2", "setting": "[1]", "result": "7.11 ± 0.08"}, {"measurement": "Kb", "setting": "[2]", "result": 14.1, "unit": "nM"}]}
{"compound": "CCN(CC)C(=O)NC1CC2c3cccc4[nH]cc(c34)CC2N(C)C1", "note": "(stereo not drawn) [8β-Tergurid]", "values": [{"measurement": "5-HT2B pA2", "setting": "[1]", "result": "8.39 ± 0.09"}, {"measurement": "Kb", "setting": "[2]", "result": 5.13, "unit": "nM"}]}
{"compound": "CCN(CC)C(=O)N[C@H]1C=C2c3cccc4[nH]cc(c34)C[C@H]2N(C)C1", "note": "[Lisurid, 3-(9,10-didehydro-6-methylergoline-8alpha-yl)-1,1-diethylurea]", "values": [{"measurement": "freie Sauerstoffradikale, die ein Molekül aufnehmen kann", "setting": "[3]", "result": "≤ 6"}, {"measurement": "Abbau von gelöstem Lisurid in Wasser", "setting": "[4]", "result": "schnell zu Produkten abgebaut"}]}
{"compound": "CCNC(=O)NC1C=C2c3cccc4[nH]cc(c34)CC2N(C)C1", "note": "(stereo not drawn) [N\"-Monodesethyllisurid]", "values": [{"measurement": "5-HT2B pA2", "setting": "[1]", "result": "8.08 ± 0.05"}, {"measurement": "Kb", "setting": "[2]", "result": 5.13, "unit": "nM"}]}
{"compound": "CCNC(=O)NC1CC2c3cccc4[nH]cc(c34)CC2N(C)C1", "note": "(stereo not drawn) [N\"-Monodesethyltergurid]", "values": [{"measurement": "5-HT2B pA2", "setting": "[1]", "result": "7.30 ± 0.02"}, {"measurement": "Kb", "setting": "[2]", "result": 15.1, "unit": "nM"}]}
{"compound": "Cc1cc(NC(=O)Nc2ccc3c(ccn3C)c2)sn1", "note": "[SB204741]", "values": [{"measurement": "5-HT2B pA2", "setting": "[5]", "result": "6.59 ± 0.20^d"}]}
{"compound": "CCN(CC)C(=O)N[C@H]1C[C@@H]2c3cccc4[nH]cc(c34)C[C@H]2N(C)C1", "note": "[Tergurid, trans-Dihydrolisurid]", "values": [{"measurement": "IC50", "setting": "[2]", "result": 0.372, "unit": "nM"}, {"measurement": "RVPsys", "setting": "[6]; Monocrotaline (60 mg/kg s.c.) + 2.5 mg/kg bid by gavage", "result": "39 ± 3", "unit": "mmHG"}, {"measurement": "SAP", "setting": "[6]; Monocrotaline + 2.5 mg/kg bid, systemic arterial pressure", "result": "111 ± 7", "unit": "mmHG"}, {"measurement": "Hydroxyproline", "setting": "[6]; lung, Monocrotaline + 2.5 mg/kg bid", "result": "2.7 ± 1.2", "unit": "ug/g protein"}, {"measurement": "Zellproliferation (3H -Thymidin-Aufnahme)", "setting": "[7]", "result": "Reduktion der Zellproliferation"}, {"measurement": "freie Sauerstoffradikale, die ein Molekül aufnehmen kann", "setting": "[3]", "result": "≤ 4"}, {"measurement": "5-HT-induzierter Gewichtsanstieg von Herz und Leber", "setting": "5-HT-induzierte Effekte; rat [Hauso O et al.", "result": "verhinderte"}, {"measurement": "Verhaltensabnormalitäten und fibrotische Hautveränderungen an den Injektionsorten von 5-HT", "setting": "5-HT-induzierte Effekte; rat [Hauso O et al.", "result": "unterdrückte"}, {"measurement": "pulmonale Klappeninsuffizienz", "setting": "5-HT-induzierte Effekte; rat, daily 5-HT over 4 months [Hauso O et al.", "result": "nicht nachweisbar"}]}
{"compound": "Oxtergurid", "values": [{"measurement": "5-HT2B pA2", "setting": "[1]", "result": "6.42 ± 0.20"}, {"measurement": "5-HT2A pA2", "setting": "[2]; pig coronary arteries, conditions as in Beispiel 1", "result": "6.99 ± 0.04"}]}
